This is an account of results in ChEMBL document CHEMBL1777794, “Optimization of the physicochemical and pharmacokinetic attributes in a 6-azauracil series of P2X7 receptor antagonists leading to the discovery of the clinical candidate CE-224,535” (Bioorg Med Chem Lett, 2011).

Activity calls are given as the source filed them. No cut-off for these calls is given here. Some results are limits rather than exact numbers.

The target of data set [1] is T1, P2X purinoceptor 7 (Homo sapiens, UniProt Q99572).
T1 sequence (Q99572 whole entry): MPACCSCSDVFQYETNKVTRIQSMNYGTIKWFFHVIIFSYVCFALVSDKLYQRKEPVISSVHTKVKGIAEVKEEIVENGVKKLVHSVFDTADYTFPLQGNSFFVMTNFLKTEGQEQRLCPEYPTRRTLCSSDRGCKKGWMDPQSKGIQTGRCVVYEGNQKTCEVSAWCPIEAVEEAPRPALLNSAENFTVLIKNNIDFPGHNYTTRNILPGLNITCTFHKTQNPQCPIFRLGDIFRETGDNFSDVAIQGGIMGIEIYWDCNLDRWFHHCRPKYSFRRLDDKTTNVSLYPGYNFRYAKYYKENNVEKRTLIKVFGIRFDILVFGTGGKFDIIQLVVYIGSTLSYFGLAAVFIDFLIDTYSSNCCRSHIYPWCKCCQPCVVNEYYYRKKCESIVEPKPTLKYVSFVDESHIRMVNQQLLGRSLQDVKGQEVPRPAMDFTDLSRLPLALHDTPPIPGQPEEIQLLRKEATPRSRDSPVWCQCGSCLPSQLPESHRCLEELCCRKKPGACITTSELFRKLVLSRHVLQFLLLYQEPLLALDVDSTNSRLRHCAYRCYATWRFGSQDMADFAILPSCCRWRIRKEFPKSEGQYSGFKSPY
Put plainly: Antagonist activity at P2X7 receptor in human LPS-stimulated monocytes assessed as inhibition of ATP-induced IL1-beta release by ELISA. The format is functional, cell-based.

Data set [2] addresses T2, P2X purinoceptor 7 (Homo sapiens) (UniProt Q99572).
T2 sequence (whole entry): T1 sequence (Q99572 whole entry)
Put plainly: Antagonist activity at P2X7 receptor in human LPS-stimulated monocytes assessed as inhibition of ATP-induced IL1-beta release at 5 uM by ELISA. It is filed as functional, cell-based. A general note: In an ELISA, binding on a coated surface is turned into a signal by an enzyme label.

Data set [3] addresses T1, P2X purinoceptor 7. In words: Antagonist activity at P2X7 receptor expressed in HEK293 cells assessed as inhibition of ATP-induced YOPRO-1 uptake. It is filed as functional, cell-based.
For data set [4], the target named is T2, P2X purinoceptor 7 (Homo sapiens). Put plainly: (§1) Antagonist activity at P2X7 receptor in human LPS-stimulated monocytes assessed as inhibition of ATP-induced IL1-beta release by ELISA in presence of human blood. The format is functional, cell-based.
The target of data set [5] is T1, P2X purinoceptor 7. The description is as §1. The format is functional, cell-based.
Data set [6] in a line: Fraction unbound in human plasma. It is filed as ADME, cell-free.
Data set [7] is described as follows: Volume of distribution at steady state in rat. The following applies: in vivo, read-out: Vdss. The format is ADME, organism-based.
Data set [8] can be described thus: Half life in rat. It is filed as ADME, organism-based. The following applies: in vivo.
The nature of data set [9]: Cmax in rat at 5 mg/kg, po. The format is ADME, organism-based. Further details: dose 5 mg/kg, route oral. Particulars: in vivo.
Data set [10] can be described thus: Oral bioavailability in rat at 5 mg/kg. It is filed as ADME, organism-based. The following applies: in vivo.
Data set [11] can be described thus: Volume of distribution at steady state in dog. The format is ADME, organism-based, Canis lupus familiaris. The following applies: in vivo, read-out: Vdss.
Data set [12] is described as follows: Half life in dog. The format is ADME, organism-based, Canis lupus familiaris. The following applies: in vivo.
Data set [13] is described as follows: Cmax in dog. It is filed as ADME, organism-based, Canis lupus familiaris. Particulars: in vivo.
Data set [14] is described as follows: Oral bioavailability in dog. It is filed as ADME, organism-based, Canis lupus familiaris. Particulars: in vivo.
The nature of data set [15]: Volume of distribution at steady state in monkey. It is filed as ADME, organism-based, Macaca mulatta. The following applies: rhesus monkey, in vivo; read-out: Vdss.
Data set [16] in a line: Half life in monkey. The following applies: rhesus monkey, in vivo. The format is ADME, organism-based, Macaca mulatta.
Data set [17] is described as follows: Cmax in monkey. It is filed as ADME, organism-based, Macaca mulatta. Particulars: rhesus monkey, in vivo.
A short description of data set [18]: Oral bioavailability in monkey. The format is ADME, organism-based, Macaca mulatta. Particulars: rhesus monkey, in vivo.
Another data set deals with T3, Cytochrome P450 1A2 (Homo sapiens, UniProt P05177).
T3 sequence (P05177 whole entry): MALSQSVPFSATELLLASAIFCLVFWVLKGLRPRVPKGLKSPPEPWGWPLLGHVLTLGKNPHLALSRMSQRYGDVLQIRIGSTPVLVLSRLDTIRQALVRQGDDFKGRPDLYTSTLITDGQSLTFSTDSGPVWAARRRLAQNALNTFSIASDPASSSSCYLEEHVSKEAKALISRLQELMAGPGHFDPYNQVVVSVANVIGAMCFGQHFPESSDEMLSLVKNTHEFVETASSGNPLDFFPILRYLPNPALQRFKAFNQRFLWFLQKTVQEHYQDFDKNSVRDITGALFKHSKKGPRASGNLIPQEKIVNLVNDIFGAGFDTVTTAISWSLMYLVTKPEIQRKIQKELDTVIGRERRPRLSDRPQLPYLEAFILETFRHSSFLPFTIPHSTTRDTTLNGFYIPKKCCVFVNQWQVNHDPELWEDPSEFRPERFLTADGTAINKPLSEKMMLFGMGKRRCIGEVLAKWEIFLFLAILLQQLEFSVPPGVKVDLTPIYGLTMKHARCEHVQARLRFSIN
Put plainly: Inhibition of human CYP1A2. The format is ADME.

In another data set the target is Cytochrome P450 2C19 (Homo sapiens, UniProt P33261). Put plainly: Inhibition of human CYP2C19. It is filed as ADME.
The target in the next data set is Cytochrome P450 2C9 (Homo sapiens, UniProt P11712). Put plainly: Inhibition of human CYP2C9. The format is ADME.
The next data set concerns the target Cytochrome P450 2D6 (Homo sapiens, UniProt P10635). Put plainly: Inhibition of human CYP2D6. It is filed as ADME.
The next data set concerns the target Cytochrome P450 3A4 (Homo sapiens, UniProt P08684). In words: Inhibition of human CYP3A4. The format is ADME.
A further data set deals with Salmonella typhimurium. In words: Mutagenic activity in Salmonella Typhimurium by Ames assay. Particulars: salmonella enterica subsp. enterica serovar typhimurium. The format is toxicity, organism-based. On the technique in general: The Ames test detects mutagens through reverse mutation in bacteria.
Data set [19] addresses Voltage-gated inwardly rectifying potassium channel KCNH2 (Homo sapiens, UniProt Q12809). Put plainly: Inhibition of human ERG at 1 uM.
In a further data set the test system is Rattus norvegicus. In words: Toxicity in rat at 500 mg/kg, po qd for 4 days. The format is organism-based. Further details: dose 500 mg/kg, route oral. The following applies: in vivo, 96 h.
Data set [20] deals with T4, P2X purinoceptor 7 (Mus musculus) (UniProt Q9Z1M0).
T4 sequence (whole entry): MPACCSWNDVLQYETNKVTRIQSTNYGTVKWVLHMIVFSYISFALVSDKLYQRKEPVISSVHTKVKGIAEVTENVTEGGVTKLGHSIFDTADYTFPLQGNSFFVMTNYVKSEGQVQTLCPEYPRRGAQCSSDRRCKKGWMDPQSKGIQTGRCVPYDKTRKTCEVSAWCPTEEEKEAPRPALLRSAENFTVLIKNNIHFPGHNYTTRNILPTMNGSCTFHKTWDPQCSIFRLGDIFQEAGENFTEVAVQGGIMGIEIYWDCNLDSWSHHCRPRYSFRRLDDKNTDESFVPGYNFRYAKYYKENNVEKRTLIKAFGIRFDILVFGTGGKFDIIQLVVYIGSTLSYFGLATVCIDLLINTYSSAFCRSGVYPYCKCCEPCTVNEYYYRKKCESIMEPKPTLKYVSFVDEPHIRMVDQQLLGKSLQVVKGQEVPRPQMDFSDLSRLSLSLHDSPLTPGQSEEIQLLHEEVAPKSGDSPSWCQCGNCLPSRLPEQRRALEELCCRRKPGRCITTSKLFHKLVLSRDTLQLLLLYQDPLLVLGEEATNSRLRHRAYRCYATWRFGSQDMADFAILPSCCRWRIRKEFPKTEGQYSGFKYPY
In words: Antagonist activity at P2X7 receptor in mouse LPS-stimulated peritoneal macrophages assessed as inhibition of ATP-induced IL1-beta release at 10 uM by ELISA. It is filed as functional.

The nature of data set [21]: Trough plasma concentration in rheumatoid arthritis patient at 500 mg BID for 12 weeks. The format is ADME. The following applies: human, read-out: Cmin.

Cytochrome P450 2C9, sequence (P11712 whole entry): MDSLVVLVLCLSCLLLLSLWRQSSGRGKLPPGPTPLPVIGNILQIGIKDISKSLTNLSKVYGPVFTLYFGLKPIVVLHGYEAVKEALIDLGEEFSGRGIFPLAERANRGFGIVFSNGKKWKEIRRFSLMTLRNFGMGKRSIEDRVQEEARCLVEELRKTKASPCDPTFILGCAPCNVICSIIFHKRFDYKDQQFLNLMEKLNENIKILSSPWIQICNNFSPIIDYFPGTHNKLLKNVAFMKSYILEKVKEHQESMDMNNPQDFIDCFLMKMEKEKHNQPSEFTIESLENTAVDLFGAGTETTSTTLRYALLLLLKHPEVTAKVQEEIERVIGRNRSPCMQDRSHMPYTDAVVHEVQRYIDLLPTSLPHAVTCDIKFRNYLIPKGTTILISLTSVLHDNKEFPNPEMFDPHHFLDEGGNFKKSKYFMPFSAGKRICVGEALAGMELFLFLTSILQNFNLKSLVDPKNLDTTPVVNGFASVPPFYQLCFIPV
Cytochrome P450 2C19, sequence (P33261 whole entry): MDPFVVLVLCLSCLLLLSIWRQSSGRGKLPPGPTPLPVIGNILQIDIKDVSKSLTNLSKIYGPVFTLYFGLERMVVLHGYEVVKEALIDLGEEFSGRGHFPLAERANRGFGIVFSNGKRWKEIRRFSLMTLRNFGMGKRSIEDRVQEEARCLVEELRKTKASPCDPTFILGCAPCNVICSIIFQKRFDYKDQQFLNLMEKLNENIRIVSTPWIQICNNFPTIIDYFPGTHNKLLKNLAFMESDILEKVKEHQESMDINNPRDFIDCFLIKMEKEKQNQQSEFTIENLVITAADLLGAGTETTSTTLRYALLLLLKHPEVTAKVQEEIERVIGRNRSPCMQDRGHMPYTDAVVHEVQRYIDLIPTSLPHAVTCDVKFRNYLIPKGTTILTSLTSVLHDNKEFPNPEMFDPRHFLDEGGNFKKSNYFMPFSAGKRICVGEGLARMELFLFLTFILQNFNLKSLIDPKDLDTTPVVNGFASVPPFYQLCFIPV
Cytochrome P450 2D6, sequence (P10635 whole entry): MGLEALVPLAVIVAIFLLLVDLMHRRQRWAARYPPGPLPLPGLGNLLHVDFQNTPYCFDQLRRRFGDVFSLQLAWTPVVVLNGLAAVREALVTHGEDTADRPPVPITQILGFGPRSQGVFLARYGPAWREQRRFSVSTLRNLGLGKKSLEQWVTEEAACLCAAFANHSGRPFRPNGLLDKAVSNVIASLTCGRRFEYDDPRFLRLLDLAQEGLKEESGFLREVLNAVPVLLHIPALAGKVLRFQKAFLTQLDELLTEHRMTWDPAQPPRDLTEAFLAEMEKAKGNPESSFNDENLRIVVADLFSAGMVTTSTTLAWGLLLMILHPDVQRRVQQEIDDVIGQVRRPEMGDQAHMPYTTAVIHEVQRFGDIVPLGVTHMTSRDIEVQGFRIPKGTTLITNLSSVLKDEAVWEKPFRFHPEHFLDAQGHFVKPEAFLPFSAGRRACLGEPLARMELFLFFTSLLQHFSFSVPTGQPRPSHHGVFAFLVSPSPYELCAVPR
Cytochrome P450 3A4, sequence (P08684 whole entry): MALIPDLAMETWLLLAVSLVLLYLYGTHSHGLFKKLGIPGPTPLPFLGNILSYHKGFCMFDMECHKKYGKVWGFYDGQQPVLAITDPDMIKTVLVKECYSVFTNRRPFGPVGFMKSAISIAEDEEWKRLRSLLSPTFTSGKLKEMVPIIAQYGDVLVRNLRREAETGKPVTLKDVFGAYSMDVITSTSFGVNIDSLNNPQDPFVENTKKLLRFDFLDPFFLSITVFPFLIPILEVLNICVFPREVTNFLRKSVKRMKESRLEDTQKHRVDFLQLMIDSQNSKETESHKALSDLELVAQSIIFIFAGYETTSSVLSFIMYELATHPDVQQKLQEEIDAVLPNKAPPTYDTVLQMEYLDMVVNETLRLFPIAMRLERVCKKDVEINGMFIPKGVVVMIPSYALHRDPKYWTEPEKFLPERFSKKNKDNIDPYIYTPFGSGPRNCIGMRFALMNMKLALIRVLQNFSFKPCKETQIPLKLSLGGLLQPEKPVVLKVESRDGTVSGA
Voltage-gated inwardly rectifying potassium channel KCNH2, sequence (Q12809 whole entry): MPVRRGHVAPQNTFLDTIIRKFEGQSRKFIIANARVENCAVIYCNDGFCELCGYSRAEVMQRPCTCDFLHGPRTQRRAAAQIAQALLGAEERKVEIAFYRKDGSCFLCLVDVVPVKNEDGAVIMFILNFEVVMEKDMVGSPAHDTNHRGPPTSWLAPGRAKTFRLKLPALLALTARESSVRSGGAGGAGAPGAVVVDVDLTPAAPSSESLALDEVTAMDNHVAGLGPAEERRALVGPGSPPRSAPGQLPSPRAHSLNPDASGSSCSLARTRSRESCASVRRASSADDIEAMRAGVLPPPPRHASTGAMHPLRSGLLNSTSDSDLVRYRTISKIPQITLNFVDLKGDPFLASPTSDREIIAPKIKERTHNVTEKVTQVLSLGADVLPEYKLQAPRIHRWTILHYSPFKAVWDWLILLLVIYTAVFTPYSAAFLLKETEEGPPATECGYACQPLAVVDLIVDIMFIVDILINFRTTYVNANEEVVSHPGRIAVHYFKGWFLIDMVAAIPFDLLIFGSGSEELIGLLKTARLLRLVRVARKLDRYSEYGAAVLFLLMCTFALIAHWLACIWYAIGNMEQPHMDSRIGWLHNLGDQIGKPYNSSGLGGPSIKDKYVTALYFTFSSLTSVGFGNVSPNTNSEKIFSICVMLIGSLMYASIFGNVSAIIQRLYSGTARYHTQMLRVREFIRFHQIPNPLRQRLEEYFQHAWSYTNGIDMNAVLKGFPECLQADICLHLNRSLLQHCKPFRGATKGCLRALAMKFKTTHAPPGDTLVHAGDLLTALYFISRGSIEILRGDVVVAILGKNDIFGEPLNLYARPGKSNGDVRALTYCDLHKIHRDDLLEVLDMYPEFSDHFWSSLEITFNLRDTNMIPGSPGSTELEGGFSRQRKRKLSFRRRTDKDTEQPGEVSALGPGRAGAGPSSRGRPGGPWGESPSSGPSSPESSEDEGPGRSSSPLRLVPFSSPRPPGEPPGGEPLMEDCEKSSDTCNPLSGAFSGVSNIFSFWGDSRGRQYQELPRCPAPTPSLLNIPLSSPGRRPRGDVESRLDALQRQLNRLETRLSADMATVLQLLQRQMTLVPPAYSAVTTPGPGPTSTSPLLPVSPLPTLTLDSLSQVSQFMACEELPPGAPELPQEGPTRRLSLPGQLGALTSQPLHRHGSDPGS

What is called IC50 is the concentration that inhibits the measured activity by half. As for `CCCCCCNC(=O)c1cc(-n2ncc(=O)[nH]c2=O)ccc1Cl`, the IC50 at P2X purinoceptor 7 [1] is 3600 nM.
By inhibition is commonly meant the change of the read-out against control, counted positive when it falls. For the compound `O=C(NCCc1cccnc1)c1cc(-n2ncc(=O)[nH]c2=O)ccc1Cl`, the inhibition in data set [2] was determined as 22%.
Regarding `CCOCCCNC(=O)c1cc(-n2ncc(=O)[nH]c2=O)ccc1Cl`, the inhibition in data set [2] worked out at 2%.
For `Cc1ccc(-n2ncc(=O)[nH]c2=O)cc1C(=O)NCC1(O)CCCCCC1`, the IC50 on P2X purinoceptor 7 [1] is 700 nM.
As to `CCCCNC(=O)c1cc(-n2ncc(=O)[nH]c2=O)ccc1Cl`, the inhibition in data set [2] is 0%.
Take `CCCOCCNC(=O)c1cc(-n2ncc(=O)[nH]c2=O)ccc1Cl`: at P2X purinoceptor 7 [1], the IC50 is above 5000 nM.
Broadly, the IC90 is the concentration needed for an effect of 90%. What is called fraction unbound is free concentration divided by total concentration. The term half-life denotes how long it takes for the measured level to halve. In general, Cmax refers to the peak of the concentration-time curve. In general, bioavailability refers to dose-corrected exposure relative to a reference, in per cent. For the compound `COC[C@H](O)Cn1c(=O)cnn(-c2ccc(Cl)c(C(=O)NCC3(O)CCCCCC3)c2)c1=O` [CE-224535], the IC50 is 4 nM on P2X purinoceptor 7 [3]; 1.4 nM on P2X purinoceptor 7 [1]; 0.8 nM on P2X purinoceptor 7 [5]; above 30000 nM against Cytochrome P450 1A2; above 30000 nM on Cytochrome P450 2C19; above 30000 nM against Cytochrome P450 2C9. For the same compound, the IC50 at Cytochrome P450 2D6 and against Cytochrome P450 3A4 was above 30000 nM in each case. Also, the IC90 in data set [4] stood at 4.7 nM. In [6], this compound displayed an unbound share (fraction unbound) of 0.27. Besides, the Vd in data set [7] came to 7.6 L/kg; in data set [11], 0.61 L/kg; in data set [15], 0.68 L/kg. Also, the half-life in data set [8] is 144 min; in data set [12], 27.6 min; in data set [16] it was 46.2 min. Besides, the figures for the Cmax in [9], in data set [13] and in data set [17] were 210 ng/mL, 3500 ng/mL and 550 ng/mL, respectively. Also, the bioavailability in data set [10] was found to be 2.6%; in [14] it was 59%; in [18], 22%. Further, the Activity entry in the data set with Salmonella typhimurium and in the data set with Rattus norvegicus was “Non-toxic” in each case. Moreover, the “inhibition (INH)” value in [19] is reported as “Not Active”. Moreover, the inhibition result in data set [20] was “Active”. Also, the concentration at 2016 h in data set [21] stood at 519 nM.
Consider `CCCCC(CC)CNC(=O)c1cc(-n2ncc(=O)[nH]c2=O)ccc1Cl` (configuration not stated), for which the IC50 on P2X purinoceptor 7 [3] came out at 1100 nM.
Turning to `CCn1c(=O)cnn(-c2ccc(Cl)c(C(=O)NCC3(O)CCCCCC3)c2)c1=O`, the values for the IC50 on P2X purinoceptor 7 [1] and on P2X purinoceptor 7 [5] were 86 nM and 185 nM, respectively.
With `O=C(NCCc1ccccn1)c1cc(-n2ncc(=O)[nH]c2=O)ccc1Cl`, the inhibition in data set [2] came out at 15%.
In the case of `CC(C)Cn1c(=O)cnn(-c2ccc(Cl)c(C(=O)NCC3(O)CCCCCC3)c2)c1=O`, the figures for the IC50 on P2X purinoceptor 7 [1] and on P2X purinoceptor 7 [5] were 34 nM and 200 nM, respectively.
Regarding `O=C(NCCc1ccccc1)c1cc(-n2ncc(=O)[nH]c2=O)ccc1Cl`, the IC50 on P2X purinoceptor 7 [1] was 940 nM.
For `CCCCC(CC)CNC(=O)c1cccc(-n2ncc(=O)[nH]c2=O)c1` (configuration not stated), in data set [2], the inhibition was determined as 0%.
Turning to `CCC(CC)CNC(=O)c1cc(-n2ncc(=O)[nH]c2=O)ccc1Cl`, the IC50 on P2X purinoceptor 7 [1] amounted to 1100 nM.
